Measurements from patent publication US7432242B2, “Inhibitors of RGS proteins” (The Regents of the University of Michigan, priority 2002, dated 2008).
Where a SMILES comes first, the peptide text is derived from it. Bridges are numbered along the chain shown (N, C = ends). Where no end group is shown, it is not given here.

Legend:
RGS4 = RGS4 (Homo sapiens, UniProt P49798); experiment: Steady-state GTPase assay, RGS4-stimulated, CHO cell membranes expressing α2a AR; assay type: biochemical; design: key to Activity (inhibitory activity, relative scale): −: —(no inhibition); relative scale from—(no inhibition) to +++; details: for IC50: steady-state membrane GTPase assay; for Activity (inhibitory activity, relative scale): inhibition of RGS4-mediated GTPase acceleration
Chain of RGS4 (P49798 whole entry, species assumed): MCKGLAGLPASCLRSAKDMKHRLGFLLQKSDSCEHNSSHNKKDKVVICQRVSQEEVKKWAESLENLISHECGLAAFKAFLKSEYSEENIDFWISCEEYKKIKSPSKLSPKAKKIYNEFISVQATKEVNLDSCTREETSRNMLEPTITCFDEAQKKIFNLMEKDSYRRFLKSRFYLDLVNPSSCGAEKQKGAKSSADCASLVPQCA
Description: (§1) In some embodiments, the membrane assay comprises a GTPase assay (See e.g, Berman et al., J. Biol. Chem., 271:27209 [1996] and Berman et al., Cell 86:445 [1996]). In such embodiments, α2A adrenergic receptor expressing membranes are pre-incubated with γ-^32P GTP and RGS proteins. In some embodiments, membranes contain both α2A adrenergic receptor and Gαo subunits, allowing measurement of both Gi and Go-coupled RGS proteins. In some embodiments, a steady-state GTPase assay is utilized to assay RGS inhibitors (See e.g., Wise and Milligan, J. Biol. Chem., 272:24673 [1997]).
This example describes a novel method of assaying for inhibitors of RGS-mediated GTPase Acceleration. A modified version of the [^35S] GTPγS binding method described in Wieland et al., 1994 (Wieland et al., Methods Enzymol. 237:3 [1994]) was utilized, with the exception that an RGS protein was included to enhance the receptor stimulation of GTPγS binding. RGS-mediated enhancement of receptor-stimulated [^35S]GTPγS binding was determined in CHO cell membranes expressing high densities (10-20 pmol/mg) of receptor. The method is not limited to the alpha 2a adrenergic receptor or the CHO membrane described herein. The membrane can be from other cell types and/or expressing other G protein coupled receptors (e.g., including, but not limited to, other Gi coupled receptors).
The assay buffer was 50 mM Tris, 5 mM MgCl2, 1 mM EDTA, 100 mM NaCl, 1 mM DTT, pH 7.6. The reaction mixture also contained the following components. Some preferred embodiments include at least one of the components marked with an *. • 1. High nanomolar or low micromolar concentrations (typically 1 μM) of GDP.* • 2. 4 μg of Chinese hamster ovary (CHO) membranes expressing the alpha 2a adrenergic receptor (α2AAR) at a receptor density of ˜10-20 pmol/mg. α2AAR-CHO membranes were prepared as previously described (Wade et al., Mol. Pharmacol. 56: 1005 [1999]). Membranes were re-suspended in Tris/MgCl2/EGTA (TME) buffer (50 mM Tris, 10 mM MgCl2, 1 mM EGTA, pH 7.6) and were aliquoted before being frozen in liquid N2 and stored at −80° C. until use. The receptor density in the α2aAR-CHO membranes was determined by [^3H] yohimbine binding and Bradford assay (Bradford, Anal. Biochem. 72: 248 [1976]). • 3. 0.2 nM-50 nM [^35S]GTPγS. A low concentration with respect to the higher concentrations of G protein and GTP utilized is necessary*. • 4. Saturating concentration of agonist for the receptor type utilized. UK 14,304 (10 μM). • 5. RGS proteins at μM or high nM ranges. • 6. GTP at high nM or low μM ranges. This is the most critical component of this method, since the massive GTP hydrolysis accelerated by RGS promotes formation of the empty DRG state which is detected by the low concentration of [^35S]GTPγS.*
Activity was measured by use of CHO cell membranes expressing the α2a AR at high levels (10-20 pmol/mg) described in Example 1 above.
Subsequently, a series of constrained peptides (Table 3) was prepared and the inhibitory activity tested. The inhibitory activity is shown in Table 3 as a relative scale from—(no inhibition) to +++.

RGS8 = target: T1, RGS8 (Homo sapiens, UniProt P57771); experiment: Steady-state membrane GTPase assay, RGS8-stimulated; assay type: biochemical
T1 sequence (P57771 1-180): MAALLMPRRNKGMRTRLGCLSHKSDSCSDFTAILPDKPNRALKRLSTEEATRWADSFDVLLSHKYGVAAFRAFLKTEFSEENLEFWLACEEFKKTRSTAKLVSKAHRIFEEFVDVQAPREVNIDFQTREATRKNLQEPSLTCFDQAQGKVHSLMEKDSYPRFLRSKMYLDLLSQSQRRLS
Description: as §1
In addition to the inhibitory activity against RGS4 mediated GTPase acceleration, three of the peptides found to be most inhibitory against RGS4 were tested for their ability to inhibit RGS8 stimulated GTPase activity.

IC50 (RGS4) [µM]	Activity (inhibitory activity, relative scale) (RGS4)	Compound	also measured
88		CC[C@H](C)[C@@H]1NC(=O)CNC(=O)[C@H]([C@@H](C)O)NC(=O)[C@@H](NC(=O)[C@H](CCCCN)NC(=O)[C@@H](NC(C)=O)C(C)C)CSCCSC[C@@H](C(=O)N[C@@H](CCC(=O)O)C(N)=O)NC1=O [JMRAc(Et)] (HELM PEPTIDE1{[ac].V.K.C.T.G.I.C.E.[am]}|CHEM1{[C(C[*:2])[*:1]]}$PEPTIDE1,CHEM1,4:R3-1:R1|PEPTIDE1,CHEM1,8:R3-1:R2$$$V2.0)	
26		CC[C@H](C)[C@@H]1NC(=O)CNC(=O)[C@H]([C@@H](C)O)NC(=O)[C@@H](NC(=O)[C@H](CCCCN)NC(=O)[C@@H](NC(C)=O)C(C)C)CSSC[C@@H](C(=O)N[C@@H](CCC(=O)O)C(N)=O)NC1=O [Yjb] (HELM PEPTIDE1{[ac].V.K.C.T.G.I.C.E.[am]}$PEPTIDE1,PEPTIDE1,4:R3-8:R3$$$V2.0)	
	+++	ES2(Et) (VKCTGFCE; cysteine pairing not given here; also: Et modification)	
	−	YJ6(Et) (VKCTSICE; bridge 3-7; also: Et modification, place not given here, cross-link 3-7: disulfide, thioether or lactam)	

The next lines start with the compound.

Compound	IC50 (RGS4) [µM]	Activity (inhibitory activity, relative scale) (RGS4)	also measured
CC[C@H](C)[C@@H]1NC(=O)CNC(=O)[C@H]([C@@H](C)O)NC(=O)[C@@H](NC(=O)[C@H](CCCCN)NC(=O)[C@@H](NC(C)=O)C(C)C)CSCSC[C@@H](C(=O)N[C@@H](CCC(=O)O)C(N)=O)NC1=O [Yja] (HELM PEPTIDE1{[ac].V.K.C.T.G.I.C.E.[am]}|CHEM1{[C([*:1])[*:2]]}$PEPTIDE1,CHEM1,4:R3-1:R1|PEPTIDE1,CHEM1,8:R3-1:R2$$$V2.0)	79		
YJ5(Et) (KCTSICE; cysteine pairing not given here; also: Et modification)		−	
CC[C@H](C)[C@@H]1NC(=O)CNC(=O)[C@H]([C@@H](C)O)NC(=O)[C@@H](NC(=O)[C@H](CCCCN)NC(=O)[C@@H](NC(C)=O)C(C)C)CCC(=O)NCCCC[C@@H](C(=O)N[C@@H](CCC(=O)O)C(N)=O)NC1=O [YJ14(lactam)] (HELM PEPTIDE1{[ac].V.K.E.T.G.I.K.E.[am]}$PEPTIDE1,PEPTIDE1,4:R3-8:R3$$$V2.0)	260		IC50 (RGS8): 840 µM
CC[C@H](C)[C@@H]1NC(=O)CNC(=O)[C@H]([C@@H](C)O)NC(=O)[C@@H](NC(=O)[C@H](CCCCN)NC(=O)[C@@H](NC(C)=O)C(C)C)CCCNC(=O)CC[C@@H](C(=O)N[C@@H](CCC(=O)O)C(N)=O)NC1=O [YJ13(lactam)] (HELM PEPTIDE1{[ac].V.K.[Orn].T.G.I.E.E.[am]}$PEPTIDE1,PEPTIDE1,4:R3-8:R3$$$V2.0)	25		IC50 (RGS8): 161 µM
VKTTGIVE			Inhibition of RGS-mediated GTPase acceleration (in words) (RGS4; RGS-stimulated GTPase activity): no activity
YJ15(Et) (VKCTGICE; bridge 3-7; also: Et modification, place not given here, cross-link 3-7: disulfide, thioether or lactam)		−	
JO1(Et) (VKCTGICE; cysteine pairing not given here; also: Et modification)		−	
YJ4(Et) (VKCTSICE; bridge 3-7; also: Et modification, place not given here, cross-link 3-7: disulfide, thioether or lactam)		+++	
